Experimental data published in patent US5001048A (priority 1987, dated 1991).
“And” between values parts separate entries of the source, which are not always exact repeats. Equal entries are not always repeated. Where two headings read alike, the source gives them in different places.

Tests used:
[1] = system: immobilized acetylcholine receptor (AChR); assay: AChR sensor alternating current impedance response to agent challenge; format: binding, Electrophorus electricus; settings: for AChR sensor response: 50 to 100 uL
Protocol: (§1) All measurements utilized wetted biosensors (i.e., sensors presoaked in deionized water and test buffer). The biosensor was washed with deionized water to a constant output value (that is, it maintained the same impedance value upon further washing). This established a baseline value for the sensor in absence of ligand. Test samples in buffer were then added. Output (changes in impedance, etc) was recorded as a function of time.
(§2) Two approaches were used to evaluate the functionality of the two types (i.e., receptor and antibody-based) of biosensors. In the first approach, measurements were taken sequentially on control and test sensors ("chips") and compared. This approach can be done quickly for rapid evaluation of a sensor (FIGS. 1 and 3). However, background (i.e., non specific binding to the sensor) is not subtracted out automatically. […] This allows for simultaneous challenge (i.e., challenge of both the control and the receptor-containing biosensor at the same time) and background is automatically subtracted out.
(§3) In the case in which sequential measurements were used, alternating current measurements were made on the sensors, and changes were recorded in impedance (measured in ohms), capacitance or phase angle. Samples in volumes of 5 to 200 microliters (ul) were analyzed; […].
(§4) Typically, a sample to be tested (i.e., one thought to contain an analyte of interest) was applied to a sensor which had been previously equilibrated with deionized water and readings of output impedance from the sensor were taken. Equilibration to constant readings occurred within 2 to 10 sec. Readings remained stable for at least the 5 minutes during which the output was routinely monitored. The sensor was then washed with deionized water to background equilibrium, sample was again added and readings were taken. In each case 2 to 5 cycles were carried out in this way.

[2] = Control sensor (same formulation, no AChR added) impedance response to agent challenge; settings: 50 to 100 uL
Protocol: as §1, §2, §3, §4
^b Control sensor is the same formulation as AChR but with no AChR

[3] = system: acetylcholine receptor (AChR); format: binding, Electrophorus electricus; settings: for % Activity Increase: 24 to 48 hours after immobilization, over nondetergent containing membrane; for stabilization of AChR activity in the membrane (in words): retention of binding activity at immobilization and after storage

glucose
% Change of AChR sensor with respect to control ([1]; agent 0.5 ug/ml): 3% | AChR sensor response ([1]; agent 0.5 ug/ml): 29 K.OMEGA. | % Change of AChR sensor with respect to control ([1]; agent 5 ug/ml): 0% | AChR sensor response ([1]; agent 5 ug/ml): 33 K.OMEGA. | % Change of AChR sensor with respect to control ([1]; agent 50 ug/ml): 6% | AChR sensor response ([1]; agent 50 ug/ml): 35 K.OMEGA. | % Change of AChR sensor with respect to control ([1]; agent 500 ug/ml): 5% | AChR sensor response ([1]; agent 500 ug/ml): 61 K.OMEGA. | change in resistance between control and AChR sensors (in words) ([1]; dose-response, Table 5): no change | Control sensor response ([2]; agent 0.5 ug/ml): 28 K.OMEGA. | Control sensor response ([2]; agent 5 ug/ml): 33 K.OMEGA. | Control sensor response ([2]; agent 50 ug/ml): 33 K.OMEGA. | Control sensor response ([2]; agent 500 ug/ml): 58 K.OMEGA.

octylphenoxy polyethoxyethanol [Triton ™ X-100]
% Activity Increase ([3]; detergent 0.1% by volume): 12% | % Activity Increase ([3]; detergent 0.5% by volume): 55% | % Activity Increase ([3]; detergent 1.0% by volume): 85% | % Activity Increase ([3]; detergent 2.0% by volume): 110% | stabilization of AChR activity in the membrane (in words) [3]: best stabilizing detergents

CCCCCCCCCCCCCCCC[N+](C)(C)C.[Br-] [CTAB, cetyltrimethylammonium bromide]
% Activity Increase ([3]; detergent 0.5% by volume): 4% | % Activity Increase ([3]; detergent 1.0% by volume): 18% | % Activity Increase ([3]; detergent 2.0% by volume): 28%

C[C@H](CCC(=O)O)[C@H]1CC[C@H]2[C@@H]3[C@H](O)C[C@@H]4C[C@H](O)CC[C@]4(C)[C@H]3C[C@H](O)[C@]12C [Sodium cholate, sodium cholate]
% Activity Increase ([3]; detergent 1.0% by volume): 110% | % Activity Increase ([3]; detergent 2.0% by volume): 145% | stabilization of AChR activity in the membrane (in words) [3]: best stabilizing detergents

CCCCCCCC[N+](C)(C)CCCS(=O)(=O)[O-] [Zwittergent ™ 3-08, N-octyl-N-N dimethyl-3-amino-1-propane sulfonate]
% Activity Increase ([3]; detergent 1.0% by volume): 55% and 30% | % Activity Increase ([3]; detergent 2.0% by volume): 55% and 38%
